Assay results published in patent publication US5484584A, “Therapeutic and diagnostic use of modified polymeric microcapsules” (priority 1992, dated 1996).

Experiment: In vivo tissue distribution of 131I-ethyliopanoate loaded microcapsules after i.v. injection
Parameters: species or system rat
Conditions: rats, 5 uCi radiotracer
Experimental: PBLG and estrone-PBLG microcapsules loaded with [^131 I]ethyliopanoate (5.7 μCi in […] of water) were administered to rats in the tail vein. Rats (N=3/group) were sacrificed at 1, 3, 6, and 24 hours after injection. The percentage of injected dose in an organ or tissue was determined by a gamma counter.
Estrone conjugated poly-benzyl-L-glutamate microcapsules loaded with ^131 I-labeled ethyliopanoate were injected into rats (three per group) via the tail-vein (5.7 μCi in 0.3 ml water). Control groups were given only the ^131 I-labeled iopanoic acid. Rats were sacrificed at 1, 3, 6 and 24 hours post injection. The percent of injected dose per organ or per tissue weight was determined by a COBRA Auto-gamma counter (Packard, Meridien, Conn.).

CCOC(=O)C(CC)Cc1c(I)cc(I)c(N)c1I (stereo not drawn) [IOPA, ethyliopanoate]
UTERUS TO MUSCLE RATIO (1 hr): 2.92 ± 0.464 | UTERUS TO MUSCLE RATIO (3 hrs): 3.60 ± 0.346 | UTERUS TO MUSCLE RATIO (6 hrs): 3.47 ± 0.122
